Target: T1, LDH from rabbit muscle (LDH-A) (Oryctolagus cuniculus, UniProt P13491)
T1 construct: gene LDHA; native commercial enzyme from rabbit muscle (Sigma-Aldrich), homotetramer
Assay: spectrophotometric NADH absorbance decrease at […] nm, initial rate
Format: biochemical

IC50: 1.2 mM
SMILES: O=S(=O)(O)CCSc1nc2ccccc2s1 [compound 4, 2-(benzothiazol-2-ylsulfanyl)-ethanesulfonate]

— PMC5081701, “Identification of New Structural Fragments for the Design of Lactate Dehydrogenase A Inhibitors” (Acta Naturae, 2016)
